This note sets out measurements from US9969716B2, “Indole derivatives as modulators of methyl modifying enzymes, compositions and uses thereof” (Constellation Pharmaceuticals, Inc., priority 2013, dated 2018).

Usually IC50 stands for the concentration at which inhibition is half-maximal. Lower therefore signals higher potency.

Where only a bound is given, the exact number is not on record here.

One experiment deals with EZH2 (Homo sapiens, UniProt Q15910). The experiment can be described thus: EZH2 assay (rPRC2, 3H SAM methyl transfer to biotinylated oligonucleosomes, FlashPlate). It counts as biochemical. A digest of the protocol:
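rPRC2 (2 nM EZH2) with 0.2 μM biotinylated oligonucleosomes, 3.6 μM H3K27me3 peptide, 0.2 μM 3H SAM in pH 8.5 Tris buffer; compounds (80 to 0.16 μM) preincubated 20 min, reaction 60 min, SAH/EDTA quench. Methylated product captured on streptavidin FlashPlates, scintillation counted.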

Another experiment addresses Y641N EZH2 (Homo sapiens, UniProt Q15910, Y641N). The experiment can be described thus: Y641N EZH2 assay (as EZH2 assay, H3K27Me2 oligonucleosomes as substrate). The class given is biochemical. Here is the method:
EZH2 Assay: Assays were carried out by mixing rPRC2 together with biotinylated oligonucleosome substrates in the presence of the radio-labeled enzyme co-factor, S-adenosyl-L-methionine (^3H SAM) (Perkin Elmer) and monitoring the enzymatically mediated transfer of tritiated methyl groups from ^3H SAM to histone lysine residues. The amount of resulting tritiated methyl histone product was measured by first capturing the biotinylated oligonucleosomes in streptavidin (SAV) coated FlashPlates (Perkin Elmer), followed by a wash step to remove un-reacted ^3H SAM, and then counting on a TopCount NXT 384 well plate scintillation counter (Perkin Elmer). The final assay conditions for EZH2 were as follows: 50 mM Tris Buffer pH 8.5, 1 mM DTT, 69 μM Brij-35 detergent, 5.0 mM MgCl2, 0.1 mg/mL BSA, 0.2 μM ^3H SAM, 0.2 μM biotinylated oligonucleosomes, 3.6 μM H3K27me3 peptide and 2 nM EZH2.
A 12.5 μL volume of the HMT enzyme, H3K27me3 peptide and oligonucleosome substrate in assay buffer was added to each well of the assay plate using a Multidrop Combi (ThermoFisher). Compounds were pre-incubated with the enzyme for 20 min, followed by initiation of the methyltransferase reaction by addition of 12.5 μL of ^3H SAM in assay buffer (final volume=25 μL). The final concentrations of compounds ranged from a top default concentration of 80 μM down to 0.16 μM in ten 2-fold dilution steps. Reactions were carried out for 60 minutes and quenched with 20 μL per well of 1.96 mM SAH, 50 mM Tris pH 8.5, 200 mM EDTA. Stopped reactions were transferred to SAV coated Flashplates (Perkin Elmer), incubated for 120 min, washed with a plate washer, and then read on the TopCount NXT (1.0 min/well) to measure the amount of methyl histone product formed during the reaction.

Experiment [1] relates to H3K27me3 mark in HeLa cells. Put plainly: H3K27me3 Alpha Hela Assay (AlphaLISA). The class given is cell-based. The settings on record: Homo sapiens, 72 hrs, read-out: EZH2_Cell_H3K27me3_Alpha_HeLa (EC50_K27me3). In a few lines:
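Ten-dose 3-fold series on HeLa cells (1,000/well, 10% DMEM), 72 hrs at 37° C. Lysis, histone extraction, then AlphaLISA with anti-K27me3 acceptor beads, biotinylated anti-H3 C-ter antibody (3 nM final) and streptavidin donor beads (20 μg/mL final); duplicate plate used for viability. DMSO-normalized dose-response curves fitted.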
A general note: Alpha assays give light when donor and acceptor beads are brought close together.

Sequence of Y641N EZH2 (Q15910 whole entry Y641N): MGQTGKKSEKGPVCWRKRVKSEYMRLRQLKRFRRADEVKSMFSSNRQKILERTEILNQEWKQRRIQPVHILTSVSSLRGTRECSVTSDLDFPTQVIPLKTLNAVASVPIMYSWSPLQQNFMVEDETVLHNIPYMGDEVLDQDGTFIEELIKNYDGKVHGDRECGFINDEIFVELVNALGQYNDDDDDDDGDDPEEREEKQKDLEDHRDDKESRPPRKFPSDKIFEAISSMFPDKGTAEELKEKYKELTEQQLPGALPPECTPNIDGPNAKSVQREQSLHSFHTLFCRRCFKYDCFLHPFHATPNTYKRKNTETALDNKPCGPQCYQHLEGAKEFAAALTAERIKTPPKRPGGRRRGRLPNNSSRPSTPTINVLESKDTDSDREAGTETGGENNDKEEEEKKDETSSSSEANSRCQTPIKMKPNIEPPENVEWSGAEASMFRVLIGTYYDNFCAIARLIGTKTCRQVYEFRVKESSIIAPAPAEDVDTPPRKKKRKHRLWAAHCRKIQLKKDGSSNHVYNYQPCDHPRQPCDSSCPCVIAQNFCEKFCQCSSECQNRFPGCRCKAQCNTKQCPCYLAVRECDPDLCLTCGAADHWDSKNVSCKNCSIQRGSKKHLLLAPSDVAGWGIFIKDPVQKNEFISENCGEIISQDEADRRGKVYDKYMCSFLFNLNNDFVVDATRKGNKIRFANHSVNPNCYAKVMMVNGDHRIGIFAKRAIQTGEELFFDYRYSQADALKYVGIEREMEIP
Sequence of Y641N EZH2 (O75530 whole entry partner): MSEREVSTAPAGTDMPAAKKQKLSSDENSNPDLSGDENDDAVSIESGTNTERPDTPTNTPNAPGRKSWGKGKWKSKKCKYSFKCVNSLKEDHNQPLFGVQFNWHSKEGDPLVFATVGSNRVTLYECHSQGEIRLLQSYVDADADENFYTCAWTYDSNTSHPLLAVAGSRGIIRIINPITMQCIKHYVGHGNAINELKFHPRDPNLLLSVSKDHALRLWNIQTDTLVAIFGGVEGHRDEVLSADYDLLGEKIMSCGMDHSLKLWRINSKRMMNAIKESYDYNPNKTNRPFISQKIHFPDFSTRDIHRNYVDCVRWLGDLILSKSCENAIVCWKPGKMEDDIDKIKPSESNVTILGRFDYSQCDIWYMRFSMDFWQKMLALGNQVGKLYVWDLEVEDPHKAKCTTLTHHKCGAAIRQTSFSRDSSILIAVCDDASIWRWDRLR
Sequence of Y641N EZH2 (Q15022 whole entry partner): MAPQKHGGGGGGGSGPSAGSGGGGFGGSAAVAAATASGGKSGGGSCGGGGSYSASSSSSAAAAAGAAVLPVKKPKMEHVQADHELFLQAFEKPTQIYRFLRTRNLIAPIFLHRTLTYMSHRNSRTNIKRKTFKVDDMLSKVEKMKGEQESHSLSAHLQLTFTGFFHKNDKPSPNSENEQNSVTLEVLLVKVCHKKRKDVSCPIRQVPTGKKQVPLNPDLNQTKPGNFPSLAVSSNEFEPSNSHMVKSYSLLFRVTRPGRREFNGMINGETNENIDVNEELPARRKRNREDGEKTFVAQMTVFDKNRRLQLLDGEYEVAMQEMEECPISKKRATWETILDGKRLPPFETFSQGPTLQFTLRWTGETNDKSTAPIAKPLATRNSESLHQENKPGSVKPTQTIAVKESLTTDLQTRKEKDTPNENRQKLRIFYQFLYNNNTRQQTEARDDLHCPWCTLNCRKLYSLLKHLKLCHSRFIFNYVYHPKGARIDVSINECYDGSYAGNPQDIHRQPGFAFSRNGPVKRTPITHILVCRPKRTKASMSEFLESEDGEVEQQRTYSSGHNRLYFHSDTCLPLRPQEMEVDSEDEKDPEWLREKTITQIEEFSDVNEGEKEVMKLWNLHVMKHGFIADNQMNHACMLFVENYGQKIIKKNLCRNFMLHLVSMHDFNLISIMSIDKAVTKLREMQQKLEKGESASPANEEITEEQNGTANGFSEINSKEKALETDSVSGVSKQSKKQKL
Sequence of EZH2 (Q15910 whole entry): as the sequence (Q15910 whole entry Y641N) above, with N641Y counted along it
Sequence of EZH2 (O75530 whole entry partner): as the sequence (O75530 whole entry partner) above
Sequence of EZH2 (Q15022 whole entry partner): as the sequence (Q15022 whole entry partner) above

For `COc1cc(C)[nH]c(=O)c1CNC(=O)c1c(C)n([C@H](C)C2CCN(CC(C)(C)F)CC2)c2ccccc12` [Compound 116], the IC50 against EZH2 and at Y641N EZH2 was less than 100 nM in each case. For the same molecule, the EC50 in experiment [1] was less than 400 nM.
With `Cc1cc(C)c(CNC(=O)c2c(C)n([C@H](C)C3CCN(S(=O)(=O)CCN4CCCC4)CC3)c3ccccc23)c(=O)[nH]1` [Compound 161], the IC50 at EZH2 and against Y641N EZH2 was less than 100 nM in each case. In addition, in experiment [1], the EC50 lay in the range of 400 to 2000 nM.
With `Cc1cc(Cl)c(CNC(=O)c2c(C)n([C@H](C)C3CCN(C4COC4)CC3)c3ccccc23)c(=O)[nH]1` [Compound 112], the IC50 against EZH2 and at Y641N EZH2 was less than 100 nM in each case. For the same molecule, the EC50 in experiment [1] is less than 400 nM.
`CNc1cc(C)[nH]c(=O)c1CNC(=O)c1c(C)n([C@H](C)C2CCN(CCC(F)(F)F)CC2)c2ccccc12` [Compound 155]: the IC50 against EZH2 and at Y641N EZH2 was less than 100 nM in each case. Moreover, the EC50 in experiment [1] is 400 to 2000 nM.
As to `Cc1cc(Cl)c(CNC(=O)c2c(C)n([C@H](C)C3CCN(CC(C)(C)O)CC3)c3ccccc23)c(=O)[nH]1` [Compound 142], the IC50 against EZH2 and at Y641N EZH2 was less than 100 nM in each case. For the same molecule, the EC50 in experiment [1] was less than 400 nM.
On to `COc1cc(C)[nH]c(=O)c1CNC(=O)c1c(C)n([C@H](C)C2CCN(c3ccc(Cl)cc3)CC2)c2ccccc12` [Compound 154], for which the IC50 against EZH2 and against Y641N EZH2 was less than 100 nM throughout. In addition, the EC50 in experiment [1] lay in the range of 400 to 2000 nM.
In the case of `COc1cc(C)[nH]c(=O)c1CNC(=O)c1c(C)n([C@H](C)C2CCN(CC(F)(F)C(F)(F)F)CC2)c2ccccc12` [Compound 113], the IC50 against EZH2 and against Y641N EZH2 was less than 100 nM throughout. Further, the EC50 in experiment [1] is less than 400 nM.
In the case of `COc1cc(C)[nH]c(=O)c1CNC(=O)c1c(C)n([C@H](C)C2CCN(c3ncc(Cl)cn3)CC2)c2ccccc12` [Compound 130], the IC50 at EZH2 and against Y641N EZH2 was less than 100 nM throughout. Besides, the EC50 in experiment [1] was less than 400 nM.
For `COc1cc(C)[nH]c(=O)c1CNC(=O)c1c(C)n([C@H](C)C2CCN(C(=O)N3CCOCC3)CC2)c2ccccc12` [Compound 167], the IC50 on EZH2 and on Y641N EZH2 was less than 100 nM each time. Also, the EC50 in experiment [1] is greater than 2000 nM.
For the molecule `COc1cc(C)[nH]c(=O)c1CNC(=O)c1c(C)n([C@H](C)C2CCN(CC3CC3)CC2)c2ccccc12` [Compound 145], the IC50 at EZH2 and against Y641N EZH2 was less than 100 nM each time. In addition, the EC50 in experiment [1] fell in the range of 400 to 2000 nM.
For `COc1cc(C)[nH]c(=O)c1CNC(=O)c1c(C)n([C@H](C)C2CCN(C[C@H](O)C(F)(F)F)CC2)c2ccccc12` [Compound 156], the IC50 against EZH2 and on Y641N EZH2 was less than 100 nM throughout. In experiment [1], the EC50 lay in the range of 400 to 2000 nM.
For the molecule `CCS(=O)(=O)N1CCC([C@@H](C)n2c(C)c(C(=O)NCc3c(Cl)cc(C)[nH]c3=O)c3ccccc32)CC1` [Compound 107], the IC50 on EZH2 and on Y641N EZH2 was less than 100 nM each time. Further, the EC50 in experiment [1] was less than 400 nM.
With `CCS(=O)(=O)N1CCC([C@@H](C)n2c(C)c(C(=O)NCc3c(NC)cc(C)[nH]c3=O)c3ccccc32)CC1` [Compound 123], the IC50 at EZH2 and at Y641N EZH2 was less than 100 nM in each case. For the same molecule, the EC50 in experiment [1] was less than 400 nM.
For the molecule `COc1cc(C)[nH]c(=O)c1CNC(=O)c1c(C)n([C@H](C)C2CCN(CC3(F)CCC3)CC2)c2ccccc12` [Compound 118], the IC50 against EZH2 and at Y641N EZH2 was less than 100 nM throughout. Further, in experiment [1], the EC50 was less than 400 nM.
Take `COc1cc(C)[nH]c(=O)c1CNC(=O)c1c(C)n([C@H](C)C2CCN(C(=O)C3(C(F)(F)F)CC3)CC2)c2ccccc12` [Compound 115]: the IC50 on EZH2 and at Y641N EZH2 was less than 100 nM each time. The EC50 in experiment [1] was less than 400 nM.
Consider `COc1cc(C)[nH]c(=O)c1CNC(=O)c1c(C)n([C@H](C)C2CCN(Cc3ccc(F)cc3)CC2)c2ccccc12` [Compound 122], for which the IC50 against EZH2 and on Y641N EZH2 was less than 100 nM throughout. For the same molecule, in experiment [1], the EC50 is less than 400 nM.
Regarding `COc1cc(C)[nH]c(=O)c1CNC(=O)c1c(C)n([C@H](C)C2CCN(CC3(F)CC3)CC2)c2ccccc12` [Compound 119], the IC50 against EZH2 and against Y641N EZH2 was less than 100 nM each time. The EC50 in experiment [1] was less than 400 nM.
On to `Cc1cc(C)c(CNC(=O)c2c(C)n([C@H](C)C3CCN(S(=O)(=O)CCN4CCOCC4)CC3)c3ccccc23)c(=O)[nH]1` [Compound 134], for which the IC50 against EZH2 and on Y641N EZH2 was less than 100 nM each time. Further, the EC50 in experiment [1] was less than 400 nM.
For the molecule `COc1cc(C)[nH]c(=O)c1CNC(=O)c1c(C)n([C@H](C)C2CCN(C(=O)C(C)(C)C)CC2)c2ccccc12` [Compound 129], the IC50 at EZH2 and against Y641N EZH2 was less than 100 nM each time. In experiment [1], the EC50 is less than 400 nM.
For `COc1cc(C)[nH]c(=O)c1CNC(=O)c1c(C)n([C@H](C)C2CCN(c3ncc(F)cn3)CC2)c2ccccc12` [Compound 120], the IC50 against EZH2 and against Y641N EZH2 was less than 100 nM in each case. Further, the EC50 in experiment [1] was less than 400 nM.
`Cc1cc(C)c(CNC(=O)c2c(C)n([C@H](C)C3CCN(S(=O)(=O)C4CN(C)C4)CC3)c3ccccc23)c(=O)[nH]1` [Compound 147]: the IC50 on EZH2 and on Y641N EZH2 was less than 100 nM each time. In addition, in experiment [1], the EC50 is 400 to 2000 nM.
Turning to `COc1cc(C)[nH]c(=O)c1CNC(=O)c1c(C)n([C@H](C)C2CCN(CC(F)(F)C(F)F)CC2)c2ccccc12` [Compound 103], the IC50 on EZH2 and at Y641N EZH2 was less than 100 nM each time. In addition, the EC50 in experiment [1] is less than 400 nM.
In the case of `COc1cc(C)[nH]c(=O)c1CNC(=O)c1c(C)n([C@H](C)C2CCN(c3ccncn3)CC2)c2ccccc12` [Compound 164], the IC50 at EZH2 and on Y641N EZH2 was less than 100 nM in each case. The EC50 in experiment [1] is greater than 2000 nM.
On to `COc1cc(C)[nH]c(=O)c1CNC(=O)c1c(C)n([C@H](C)C2CCN(CC(C)(F)F)CC2)c2ccccc12` [Compound 101, (R)-1-(1-(1-(2,2-difluoropropyl)piperidin-4-yl)ethyl)-N-((4-methoxy-6-methyl-2-oxo-1,2-dihydropyridin-3-yl)methyl)-2-methyl-1H-indole-3-carboxamide], for which the IC50 against EZH2 and on Y641N EZH2 was less than 100 nM throughout. Further, the EC50 in experiment [1] was less than 400 nM.
Consider `COc1cc(C)[nH]c(=O)c1CNC(=O)c1c(C)n([C@H](C)C2CCN(S(=O)(=O)C3CC3)CC2)c2ccccc12` [Compound 117, (R)-1-(1-(1-(cyclopropylsulfonyl)piperidin-4-yl)ethyl)-N-((4-methoxy-6-methyl-2-oxo-1,2-dihydropyridin-3-yl)methyl)-2-methyl-1H-indole-3-carboxamide], for which the IC50 on EZH2 and on Y641N EZH2 was less than 100 nM each time. In addition, the EC50 in experiment [1] is less than 400 nM.
In the case of `COc1cc(C)[nH]c(=O)c1CNC(=O)c1c(C)n([C@H](C)C2CCN(Cc3cc(F)cc(F)c3)CC2)c2ccccc12` [Compound 109, (R)-1-(1-(1-(3,5-difluorobenzyl)piperidin-4-yl)ethyl)-N-((4-methoxy-6-methyl-2-oxo-1,2-dihydropyridin-3-yl)methyl)-2-methyl-1H-indole-3-carboxamide], the IC50 on EZH2 and on Y641N EZH2 was less than 100 nM throughout. Besides, the EC50 in experiment [1] is less than 400 nM.
On to `Cc1cc(OC(F)F)c(CNC(=O)c2c(C)n([C@H](C)C3CCN(CCC(F)(F)F)CC3)c3ccccc23)c(=O)[nH]1` [Compound 143], for which the IC50 against EZH2 and at Y641N EZH2 was less than 100 nM in each case. Besides, in experiment [1], the EC50 was less than 400 nM.
Regarding `COc1cc(C)[nH]c(=O)c1CNC(=O)c1c(C)n([C@H](C)C2CCN(S(=O)(=O)c3ccc(F)cc3)CC2)c2ccccc12` [Compound 137], the half-maximal inhibitory concentration (IC50) at EZH2 and against Y641N EZH2 was less than 100 nM each time. Moreover, the EC50 in experiment [1] was less than 400 nM.
For `COc1cc(C)[nH]c(=O)c1CNC(=O)c1c(C)n([C@H](C)C2CCN(c3cccnc3)CC2)c2ccccc12` [Compound 125], the 50% inhibitory concentration (IC50) on EZH2 and against Y641N EZH2 was less than 100 nM each time. The EC50 in experiment [1] was less than 400 nM.
Turning to `Cc1cc(OC(F)F)c(CNC(=O)c2c(C)n([C@H](C)C3CCN(CC(F)F)CC3)c3ccccc23)c(=O)[nH]1` [Compound 110], the IC50 at EZH2 and at Y641N EZH2 was less than 100 nM each time. In addition, in experiment [1], the EC50 is less than 400 nM.
